Measurements published in US20230393122A1 (priority 2022, published 2023).
Read-outs that look alike come from different tables or passages of the source.

What was measured:
SARS-CoV-2 WT [1] = test: Viral load reduction assay in EPSC-derived eSTB cells (qRT-PCR of supernatant viral copies); type: cell-based; conditions: for IC50: read-out: IC50 for SARS-CoV-2 in eSTBs
SARS-CoV-2 [2] = conditions: Vero E6 cells; read-out: IC50 against SARS-CoV-2 in Vero E6 cells; cited from earlier work
SARS-CoV-2 WT [3] = test: Viral load reduction assay in naïve-eSTB cells; type: cell-based; conditions: compared with EPSC-eSTBs
[4] = test system: SARS-CoV-2 infected eSTBs; type: cell-based, human
MERS-CoV = type: cell-based; conditions: 48 h.p.i., efficiency comparable to that in Vero E6 cells
SARS-CoV-2 [5] = conditions: cited from earlier work

Structure (SMILES): CC(C)C[C@H](NC(=O)OCc1ccccc1)C(=O)N[C@@H](CC1CCNC1=O)C(O)S(=O)(=O)O (some centres unmarked) [GC376]
- IC50 (SARS-CoV-2 WT [1]): 31.2 ± 5.6 nM
- IC50 (SARS-CoV-2 [2]): 700 nM

Structure (SMILES): CCC(CC)COC(=O)[C@H](C)N[P@](=O)(OC[C@H]1O[C@@](C#N)(c2ccc3c(N)ncnn23)[C@H](O)[C@@H]1O)Oc1ccccc1 [remdesivir]
- IC50 (SARS-CoV-2 WT [1]; Severe acute respiratory syndrome coronavirus 2, 48 h): 3.2 ± 0.1 nM

Structure (SMILES): CC(C)C[C@H](NC(=O)OCc1ccccc1)C(=O)N[C@@H](C[C@@H]1CCNC1=O)C(O)S(=O)(=O)[O-].[Na+] (some centres unmarked) [GC376]
- Viral copy in the supernatant, SARS-CoV-2 WT (FIG. 17B) (SARS-CoV-2 WT [1]; EPSC-derived eSTB cells): dose-dependent inhibition
- IC50 against SARS-CoV-2 in naïve-eSTBs (SARS-CoV-2 WT [3]): similarly low
- eSTB development and differentiation along PI-TB to PI-STB pseudotime trajectory [4]: partially rescued
- MERS-CoV replication in eSTBs (MERS-CoV): effectively block
- Survival of mice with a fatal SARS-CoV-2 infection (SARS-CoV-2 [5]): increases survival
